Source: the kinase profiling compilation of Christmann-Franck et al. (2016)

Legend:
Test in all cases: KINOMEscan competition binding
Conditions in all cases: compound 2.0 µM
CAMK4 (human) = CAMK4 (human) (UniProt Q16566)
CAMKK1 (human) = CAMKK1 (human) (UniProt Q8N5S9)
MINK1 (human) = MINK1 (human) (UniProt Q8N4C8)
LATS1 (human) = LATS1 (human) (UniProt O95835)
PIK3CD (human) = PIK3CD (human) (UniProt O00329)
TAOK2 (human) = TAOK2 (human) (UniProt Q9UL54)
PIK3C2G (human) = PIK3C2G (human) (UniProt O75747)
CSNK1A1L (human) = CSNK1A1L (human) (UniProt Q8N752)
CAMK1G (human) = CAMK1G (human) (UniProt Q96NX5)
GRK4 (human) = GRK4 (human) (UniProt P32298)
HIPK1 (human) = HIPK1 (human) (UniProt Q86Z02)
KIT (human) = KIT (human) (UniProt P10721)
TAOK3 (human) = TAOK3 (human) (UniProt Q9H2K8)
ERBB3 (human) = ERBB3 (human) (UniProt P21860)
RPS6KA4 KD2 (human) = RPS6KA4 KD2 (human) (UniProt O75676)
STK32A (human) = STK32A (human) (UniProt Q8WU08)
NUAK2 (human) = NUAK2 (human) (UniProt Q9H093)
PRKCI (human) = PRKCI (human) (UniProt P41743)
DSTYK (human) = DSTYK (human) (UniProt Q6XUX3)
IRAK4 (human) = IRAK4 (human) (UniProt Q9NWZ3)
NTRK2 (human) = NTRK2 (human) (UniProt Q16620)
CDKL5 (human) = CDKL5 (human) (UniProt O76039)
Sequence of CDKL5 (human) (O76039 whole entry, looked up): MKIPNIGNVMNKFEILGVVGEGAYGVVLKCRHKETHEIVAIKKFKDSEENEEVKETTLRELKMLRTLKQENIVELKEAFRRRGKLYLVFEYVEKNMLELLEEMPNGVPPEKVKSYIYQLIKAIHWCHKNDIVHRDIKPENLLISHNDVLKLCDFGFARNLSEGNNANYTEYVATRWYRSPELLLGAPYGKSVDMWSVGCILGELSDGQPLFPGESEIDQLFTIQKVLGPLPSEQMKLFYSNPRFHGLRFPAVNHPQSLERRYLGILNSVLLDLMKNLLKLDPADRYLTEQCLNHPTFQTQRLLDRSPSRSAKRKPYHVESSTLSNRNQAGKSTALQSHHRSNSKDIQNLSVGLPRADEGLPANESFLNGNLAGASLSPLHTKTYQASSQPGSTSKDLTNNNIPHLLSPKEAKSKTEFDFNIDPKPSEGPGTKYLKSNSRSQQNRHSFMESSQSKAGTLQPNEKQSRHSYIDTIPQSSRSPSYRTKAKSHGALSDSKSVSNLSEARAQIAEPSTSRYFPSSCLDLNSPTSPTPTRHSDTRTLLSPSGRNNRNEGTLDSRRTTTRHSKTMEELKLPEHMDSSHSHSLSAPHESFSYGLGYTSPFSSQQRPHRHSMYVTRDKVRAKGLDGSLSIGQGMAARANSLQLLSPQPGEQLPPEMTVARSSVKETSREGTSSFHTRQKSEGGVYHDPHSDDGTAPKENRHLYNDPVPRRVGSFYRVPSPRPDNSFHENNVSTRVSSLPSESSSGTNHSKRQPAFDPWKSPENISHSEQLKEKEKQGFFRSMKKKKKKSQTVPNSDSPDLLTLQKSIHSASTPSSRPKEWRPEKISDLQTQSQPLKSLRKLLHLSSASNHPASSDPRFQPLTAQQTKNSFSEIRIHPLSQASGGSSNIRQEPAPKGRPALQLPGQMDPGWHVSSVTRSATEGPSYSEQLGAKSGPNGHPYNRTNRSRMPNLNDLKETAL

MAST1 (human) = MAST1 (human) (UniProt Q9Y2H9)
NEK9 (human) = NEK9 (human) (UniProt Q8TD19)
Sequence of NEK9 (human) (Q8TD19 whole entry, looked up): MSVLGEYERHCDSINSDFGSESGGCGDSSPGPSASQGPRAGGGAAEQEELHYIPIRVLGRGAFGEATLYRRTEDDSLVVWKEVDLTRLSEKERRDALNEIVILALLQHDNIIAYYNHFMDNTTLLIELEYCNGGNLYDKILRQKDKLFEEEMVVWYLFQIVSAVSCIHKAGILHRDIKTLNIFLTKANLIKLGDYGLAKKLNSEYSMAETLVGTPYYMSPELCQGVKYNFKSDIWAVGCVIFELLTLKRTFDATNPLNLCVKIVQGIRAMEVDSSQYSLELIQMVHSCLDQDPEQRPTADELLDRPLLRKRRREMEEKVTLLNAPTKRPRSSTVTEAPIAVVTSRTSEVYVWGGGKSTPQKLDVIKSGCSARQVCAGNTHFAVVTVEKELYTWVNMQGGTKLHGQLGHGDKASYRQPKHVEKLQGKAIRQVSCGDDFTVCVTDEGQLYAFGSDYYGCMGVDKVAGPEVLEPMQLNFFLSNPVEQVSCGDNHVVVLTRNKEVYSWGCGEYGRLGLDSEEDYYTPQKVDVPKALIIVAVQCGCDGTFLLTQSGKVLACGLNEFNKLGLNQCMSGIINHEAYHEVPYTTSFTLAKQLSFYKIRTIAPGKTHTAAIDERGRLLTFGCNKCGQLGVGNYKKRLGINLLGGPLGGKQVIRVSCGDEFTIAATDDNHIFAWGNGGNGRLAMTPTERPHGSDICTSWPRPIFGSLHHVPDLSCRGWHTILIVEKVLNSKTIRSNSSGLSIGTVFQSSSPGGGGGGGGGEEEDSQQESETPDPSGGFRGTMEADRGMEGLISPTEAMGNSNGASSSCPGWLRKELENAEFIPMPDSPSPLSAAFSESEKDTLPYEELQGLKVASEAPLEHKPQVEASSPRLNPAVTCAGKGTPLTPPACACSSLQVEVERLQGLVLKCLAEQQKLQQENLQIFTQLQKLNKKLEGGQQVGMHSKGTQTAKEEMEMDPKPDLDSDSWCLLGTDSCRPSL

RPS6KA3 KD1 (human) = RPS6KA3 KD1 (human) (UniProt P51812)
RPS6KA1 KD2 (human) = RPS6KA1 KD2 (human) (UniProt Q15418)
BRSK1 (human) = BRSK1 (human) (UniProt Q8TDC3)
HUNK (human) = HUNK (human) (UniProt P57058)
Sequence of HUNK (human) (P57058 whole entry, looked up): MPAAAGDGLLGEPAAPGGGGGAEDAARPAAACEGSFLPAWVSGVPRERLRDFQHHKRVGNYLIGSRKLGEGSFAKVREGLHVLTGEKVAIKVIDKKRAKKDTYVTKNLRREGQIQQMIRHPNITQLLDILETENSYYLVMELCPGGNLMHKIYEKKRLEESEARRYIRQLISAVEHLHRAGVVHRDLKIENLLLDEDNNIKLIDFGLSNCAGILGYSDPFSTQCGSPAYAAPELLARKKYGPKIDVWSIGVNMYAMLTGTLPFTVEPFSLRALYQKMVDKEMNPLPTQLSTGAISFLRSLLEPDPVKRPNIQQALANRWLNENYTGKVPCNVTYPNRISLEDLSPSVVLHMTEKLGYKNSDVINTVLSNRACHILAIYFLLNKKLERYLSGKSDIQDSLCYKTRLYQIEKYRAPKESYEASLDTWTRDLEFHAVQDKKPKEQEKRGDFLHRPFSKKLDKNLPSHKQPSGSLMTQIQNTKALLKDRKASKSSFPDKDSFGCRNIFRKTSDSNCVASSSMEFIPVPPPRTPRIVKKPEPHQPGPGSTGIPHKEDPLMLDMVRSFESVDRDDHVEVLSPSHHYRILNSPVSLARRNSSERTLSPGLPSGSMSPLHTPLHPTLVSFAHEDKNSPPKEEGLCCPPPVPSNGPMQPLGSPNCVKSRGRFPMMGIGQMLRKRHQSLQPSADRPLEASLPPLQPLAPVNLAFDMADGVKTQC

MAPK8 (human) = MAPK8 (human) (UniProt P45983)
NTRK3 (human) = NTRK3 (human) (UniProt Q16288)
IGF1R (human) = IGF1R (human) (UniProt P08069)
CLK3 (human) = CLK3 (human) (UniProt P49761)
Sequence of CLK3 (human) (P49761 whole entry, looked up): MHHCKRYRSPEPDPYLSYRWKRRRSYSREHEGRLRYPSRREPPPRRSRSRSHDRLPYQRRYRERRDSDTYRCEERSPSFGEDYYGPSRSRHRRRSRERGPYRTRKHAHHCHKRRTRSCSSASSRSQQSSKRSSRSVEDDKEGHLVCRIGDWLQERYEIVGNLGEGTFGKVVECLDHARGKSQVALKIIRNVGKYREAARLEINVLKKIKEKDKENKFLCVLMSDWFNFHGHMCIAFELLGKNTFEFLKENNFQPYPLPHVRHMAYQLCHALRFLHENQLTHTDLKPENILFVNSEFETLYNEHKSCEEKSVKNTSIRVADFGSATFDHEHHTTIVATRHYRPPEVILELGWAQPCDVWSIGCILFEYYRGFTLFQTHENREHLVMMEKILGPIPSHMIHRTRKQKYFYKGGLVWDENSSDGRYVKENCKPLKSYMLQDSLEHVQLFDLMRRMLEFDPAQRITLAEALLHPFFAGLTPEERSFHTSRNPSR

FYN (human) = FYN (human) (UniProt P06241)
CDK4 CCND1 (human) = CDK4 CCND1 (human) (UniProt P11802+P24385)
Sequence of CDK4 CCND1 (human) (P11802 whole entry, looked up): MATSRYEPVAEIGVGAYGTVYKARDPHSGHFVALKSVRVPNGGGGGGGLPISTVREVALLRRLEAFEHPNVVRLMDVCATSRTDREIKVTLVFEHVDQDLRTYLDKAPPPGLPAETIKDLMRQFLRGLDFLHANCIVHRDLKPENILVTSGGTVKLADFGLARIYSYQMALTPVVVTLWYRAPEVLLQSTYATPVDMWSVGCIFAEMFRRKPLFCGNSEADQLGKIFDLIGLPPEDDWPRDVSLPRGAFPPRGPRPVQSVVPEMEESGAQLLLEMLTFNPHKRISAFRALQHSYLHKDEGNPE
Sequence of CDK4 CCND1 (human) (P24385 whole entry, looked up): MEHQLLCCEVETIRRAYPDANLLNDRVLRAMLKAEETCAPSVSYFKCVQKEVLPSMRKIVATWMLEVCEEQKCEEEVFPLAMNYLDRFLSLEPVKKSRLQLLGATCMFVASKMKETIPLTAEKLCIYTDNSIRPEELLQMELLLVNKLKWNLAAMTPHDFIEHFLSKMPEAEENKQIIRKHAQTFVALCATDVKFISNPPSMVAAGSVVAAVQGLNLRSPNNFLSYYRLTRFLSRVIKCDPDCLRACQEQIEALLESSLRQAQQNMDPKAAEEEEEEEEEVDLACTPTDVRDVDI

STK35 (human) = STK35 (human) (UniProt Q8TDR2)
RIOK1 (human) = RIOK1 (human) (UniProt Q9BRS2)
RPS6KA2 KD1 (human) = RPS6KA2 KD1 (human) (UniProt Q15349)
PTK2 (human) = PTK2 (human) (UniProt Q05397)
Sequence of PTK2 (human) (Q05397 whole entry, looked up): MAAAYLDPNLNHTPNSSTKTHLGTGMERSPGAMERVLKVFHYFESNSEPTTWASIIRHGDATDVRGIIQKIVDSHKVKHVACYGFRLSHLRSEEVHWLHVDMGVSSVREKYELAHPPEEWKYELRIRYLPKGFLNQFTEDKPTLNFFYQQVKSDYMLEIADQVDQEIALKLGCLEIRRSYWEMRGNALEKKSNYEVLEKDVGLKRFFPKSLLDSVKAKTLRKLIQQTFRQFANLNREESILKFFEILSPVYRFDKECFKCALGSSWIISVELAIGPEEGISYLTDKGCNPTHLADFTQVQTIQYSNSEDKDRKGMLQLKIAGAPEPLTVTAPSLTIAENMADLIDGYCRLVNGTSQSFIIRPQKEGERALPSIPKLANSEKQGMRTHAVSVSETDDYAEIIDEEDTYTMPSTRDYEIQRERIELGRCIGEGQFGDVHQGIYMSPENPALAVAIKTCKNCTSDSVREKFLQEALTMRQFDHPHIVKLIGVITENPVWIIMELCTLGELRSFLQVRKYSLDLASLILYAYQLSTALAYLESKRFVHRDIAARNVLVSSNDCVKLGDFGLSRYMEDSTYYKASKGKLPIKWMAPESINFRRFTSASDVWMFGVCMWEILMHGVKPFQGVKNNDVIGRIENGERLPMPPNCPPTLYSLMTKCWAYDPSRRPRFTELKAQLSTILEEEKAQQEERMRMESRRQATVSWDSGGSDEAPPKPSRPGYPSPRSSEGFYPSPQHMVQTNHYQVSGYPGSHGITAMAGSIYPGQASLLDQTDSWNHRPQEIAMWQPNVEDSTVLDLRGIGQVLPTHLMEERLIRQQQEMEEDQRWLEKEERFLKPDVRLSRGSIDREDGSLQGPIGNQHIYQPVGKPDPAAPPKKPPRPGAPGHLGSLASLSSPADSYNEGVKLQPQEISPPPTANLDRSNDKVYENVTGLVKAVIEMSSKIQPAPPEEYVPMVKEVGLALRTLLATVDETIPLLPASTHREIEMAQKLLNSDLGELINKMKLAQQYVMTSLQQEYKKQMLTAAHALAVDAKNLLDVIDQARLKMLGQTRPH

PAK1 (human) = PAK1 (human) (UniProt Q13153)
MAPK1 (human) = MAPK1 (human) (UniProt P28482)
[1] = test system: PIK3CA (human), P42336 [M1043I]
MERTK (human) = MERTK (human) (UniProt Q12866)

## N#Cc1ccc2ncnc(NCCc3ccc4ccccc4c3)c2c1
CAMK4 (human)
  kinase still bound, per cent of control: 100%
CAMKK1 (human)
  kinase still bound, per cent of control: 97%
MINK1 (human)
  kinase still bound, per cent of control: 100%
LATS1 (human)
  kinase still bound, per cent of control: 93%
PIK3CD (human)
  kinase still bound, per cent of control: 100%
TAOK2 (human)
  kinase still bound, per cent of control: 83%
PIK3C2G (human)
  kinase still bound, per cent of control: 100%
CSNK1A1L (human)
  kinase still bound, per cent of control: 89%
CAMK1G (human)
  kinase still bound, per cent of control: 86%
GRK4 (human)
  kinase still bound, per cent of control: 89%
HIPK1 (human)
  kinase still bound, per cent of control: 100%
KIT (human)
  kinase still bound, per cent of control: 97%
TAOK3 (human)
  kinase still bound, per cent of control: 79%
ERBB3 (human)
  kinase still bound, per cent of control: 100%
RPS6KA4 KD2 (human)
  kinase still bound, per cent of control: 90%
STK32A (human)
  kinase still bound, per cent of control: 100%
NUAK2 (human)
  kinase still bound, per cent of control: 77%
PRKCI (human)
  kinase still bound, per cent of control: 100%
DSTYK (human)
  kinase still bound, per cent of control: 61%
IRAK4 (human)
  kinase still bound, per cent of control: 100%
NTRK2 (human)
  kinase still bound, per cent of control: 98%
CDKL5 (human)
  kinase still bound, per cent of control: 100%
MAST1 (human)
  kinase still bound, per cent of control: 84%
NEK9 (human)
  kinase still bound, per cent of control: 100%
RPS6KA3 KD1 (human)
  kinase still bound, per cent of control: 97%
RPS6KA1 KD2 (human)
  kinase still bound, per cent of control: 88%
BRSK1 (human)
  kinase still bound, per cent of control: 100%
HUNK (human)
  kinase still bound, per cent of control: 100%
MAPK8 (human)
  kinase still bound, per cent of control: 100%
NTRK3 (human)
  kinase still bound, per cent of control: 100%
IGF1R (human)
  kinase still bound, per cent of control: 100%
CLK3 (human)
  kinase still bound, per cent of control: 93%
FYN (human)
  kinase still bound, per cent of control: 98%
CDK4 CCND1 (human)
  kinase still bound, per cent of control: 100%
STK35 (human)
  kinase still bound, per cent of control: 100%
RIOK1 (human)
  kinase still bound, per cent of control: 71%
RPS6KA2 KD1 (human)
  kinase still bound, per cent of control: 100%
PTK2 (human)
  kinase still bound, per cent of control: 88%
PAK1 (human)
  kinase still bound, per cent of control: 82%
MAPK1 (human)
  kinase still bound, per cent of control: 100%
[1]
  kinase still bound, per cent of control: 93%
MERTK (human)
  kinase still bound, per cent of control: 93%
